Legend:
green foxtail = experiment: greenhouse post-emergence herbicidal test; assay type: in vivo, Setaria viridis; details: application rate 1.0 kg/ha a.s.
Excerpt: (§1) The seeds of the test plants were sown separately for each species. For the post-emergence treatment, the test plants were first grown to a height of 3 to 15 cm, depending on the plant habit, and only then treated with the active ingredients which had been suspended or emulsified in water. For this purpose, the test plants were either sown directly and grown in the same containers, or they were first grown separately as seedlings and transplanted into the test containers a few days prior to treatment. The rate of application for the post-emergence treatment was 1.0 kg/ha of a.s. (active substance). Depending on the species, the plants were kept at 10-25° C. or 20-35° C. The test period extended over 2 to 4 weeks. During this time, the plants were tended, and their response to the individual treatments was evaluated. Evaluation was carried out using a scale from 0 to 100. 100 means no emergence of the plants, or complete destruction of at least the aerial parts, and 0 means no damage, or normal course of growth. The plants used in the greenhouse experiments belonged to the following species: [table]

pig weed = experiment: greenhouse post-emergence herbicidal test; assay type: in vivo, Amaranthus retroflexus; details: application rate 1.0 kg/ha a.s.
Excerpt: as §1

lambsquarters = experiment: greenhouse post-emergence herbicidal test; assay type: in vivo, Chenopodium album; details: application rate 1.0 kg/ha a.s.
Excerpt: as §1

| melting point | Structure (SMILES) | post-emergence action against green foxtail (green foxtail) | post-emergence action against pig weed (pig weed) | post-emergence action against lambsquarters (lambsquarters) |
| --- | --- | --- | --- | --- |
| 205 °C | CNC(=O)[C@H](CNC(=O)OC)NC(=O)c1cn(C)nc1C(F)(F)F [Compound 3.10, O-Methyl N-[(2S)-3-(methylamino)-2-({[1-methyl-3-(trifluoromethyl)-1H-pyrazol-4-yl]carbonyl}amino)-3-oxopropyl]carbamate] | very good | very good | very good |
| 127 °C | CNC(=O)[C@H](CN)NC(=O)c1cn(C)nc1C(F)(F)F [Compound 3.6, N-[(1S)-1-(Aminomethyl)-2-(methylamino)-2-oxoethyl]-1-methyl-3-(trifluoromethyl)-1H-pyrazole-4-carboxamide] | – | – | – |
| 78 °C | CNC(=O)[C@H](CNC(=O)OC(C)(C)C)NC(=O)c1cn(C)nc1C(F)(F)F [Compound 3.11, O-tert-Butyl N-[(2S)-3-(methylamino)-2-({[1-methyl-3-(trifluoromethyl)-1H-pyrazol-4-yl]carbonyl}amino)-3-oxopropyl]carbamate] | – | – | – |
